Reference: US10988477B2 (Merck Patent GmbH, priority 2018, dated 2021)
Where two headings read alike, the source gives them in different places.

Legend:
GCN2 kinase = GCN2 kinase (Homo sapiens, UniProt Q9P2K8); experiment: GCN2 enzyme inhibition assay (Transcreener ADP2 fluorescence polarization); format: biochemical; settings: 280 μM ATP
Procedure, shortened: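 4 nM GCN2 + 200 μM (RS)7 + compound (0–8 μM), 10 min preinc.; start with ATP (280 μM final); 1 h, 25 °C; pH 7.5 Tris/NaCl/MgCl2/DTT; ADP FP readout; IC50, Ki(app) via tight-binding fit.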

[1] = biological target: intracellular GCN2 (phosphorylation of the GCN2 substrate eIF2α) (Homo sapiens, UniProt Q9P2K8); experiment: GCN2 cellular inhibition assay (AlphaScreen SureFire P-eIF2α Ser51, borrelidin-treated U2OS cells); format: cell-based
Sequence of intracellular GCN2 (phosphorylation of the GCN2 substrate eIF2α) (Q9P2K8 whole entry): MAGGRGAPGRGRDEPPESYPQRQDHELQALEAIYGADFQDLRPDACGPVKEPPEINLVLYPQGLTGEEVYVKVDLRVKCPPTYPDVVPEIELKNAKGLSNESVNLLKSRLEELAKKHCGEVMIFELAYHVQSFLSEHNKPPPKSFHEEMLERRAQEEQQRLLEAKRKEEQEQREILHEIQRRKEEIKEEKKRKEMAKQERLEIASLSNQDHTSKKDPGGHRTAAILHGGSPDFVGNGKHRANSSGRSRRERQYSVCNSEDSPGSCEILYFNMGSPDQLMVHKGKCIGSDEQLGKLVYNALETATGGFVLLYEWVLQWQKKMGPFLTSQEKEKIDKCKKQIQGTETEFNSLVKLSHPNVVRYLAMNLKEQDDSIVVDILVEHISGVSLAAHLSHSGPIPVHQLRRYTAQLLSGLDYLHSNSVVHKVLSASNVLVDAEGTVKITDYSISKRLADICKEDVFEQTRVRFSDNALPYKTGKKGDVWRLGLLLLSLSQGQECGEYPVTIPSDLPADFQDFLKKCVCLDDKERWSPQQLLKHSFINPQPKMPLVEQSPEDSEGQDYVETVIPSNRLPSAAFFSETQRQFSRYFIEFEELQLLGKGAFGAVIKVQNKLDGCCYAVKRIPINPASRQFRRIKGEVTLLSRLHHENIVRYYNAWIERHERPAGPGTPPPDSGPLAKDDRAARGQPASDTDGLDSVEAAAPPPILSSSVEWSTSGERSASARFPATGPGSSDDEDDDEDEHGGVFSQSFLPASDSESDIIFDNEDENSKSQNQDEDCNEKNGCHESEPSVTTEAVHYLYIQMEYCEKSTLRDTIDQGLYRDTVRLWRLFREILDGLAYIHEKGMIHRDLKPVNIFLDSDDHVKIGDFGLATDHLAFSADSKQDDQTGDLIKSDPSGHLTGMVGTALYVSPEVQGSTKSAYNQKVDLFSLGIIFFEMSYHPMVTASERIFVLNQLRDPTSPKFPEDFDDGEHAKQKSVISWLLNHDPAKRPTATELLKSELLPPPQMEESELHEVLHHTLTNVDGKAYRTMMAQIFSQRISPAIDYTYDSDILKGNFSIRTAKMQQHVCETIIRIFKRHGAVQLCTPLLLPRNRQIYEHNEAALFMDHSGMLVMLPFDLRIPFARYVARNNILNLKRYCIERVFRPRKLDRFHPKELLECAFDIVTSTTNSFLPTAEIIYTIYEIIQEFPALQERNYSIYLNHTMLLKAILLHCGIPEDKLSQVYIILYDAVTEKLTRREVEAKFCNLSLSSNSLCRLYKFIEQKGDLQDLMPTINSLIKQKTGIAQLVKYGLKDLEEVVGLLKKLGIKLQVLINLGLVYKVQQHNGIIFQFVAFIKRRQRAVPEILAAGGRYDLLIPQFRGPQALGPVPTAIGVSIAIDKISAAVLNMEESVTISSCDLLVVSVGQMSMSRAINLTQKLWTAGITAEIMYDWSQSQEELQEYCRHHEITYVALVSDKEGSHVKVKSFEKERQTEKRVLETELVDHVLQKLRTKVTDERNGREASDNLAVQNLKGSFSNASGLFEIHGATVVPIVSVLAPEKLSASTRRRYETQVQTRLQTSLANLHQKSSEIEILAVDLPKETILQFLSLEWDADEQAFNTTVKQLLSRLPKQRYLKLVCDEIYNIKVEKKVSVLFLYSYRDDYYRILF
Description: Compounds can be screened for their ability to inhibit intracellular GCN2 using an AlphaScreen assay (Perkin Elmer) to detect phosphorylation of the GCN2 substrate eIF2α in borrelidin-treated cells. U2OS cells are plated at 5,000 cells per well in 384-well white polystyrene plates (Corning 3570) in McCoy's 5 A media (GIBCO 26600-023) supplemented with 10% foetal bovine serum (SAFC 12103C), Penicillin/Streptomycin solution diluted 1:100 (Sigma P0781), and 2 mM L-glutamine (Sigma G7513), and allowed to adhere overnight at 37° C. in 5% CO2. Compounds are then added to the cell media from a final concentration of 40 μM in 4-fold serial dilutions. Borrelidin (FluoroChem M01440) is immediately added to the wells to a final concentration of 10 μM and the cells are incubated for 1 h at 37° C. in 5% CO2. After 1 h of treatment with borrelidin, the media is removed, and the cells are lysed with lysis buffer (TGR BioSciences TGRLB) at ambient temperature.
An AlphaScreen SureFire P-eIF2α (Ser51) assay kit (Perkin Elmer TGREIF2S) was used to measure levels of eIF2α phosphorylated on Serine 51. Anti-phosphorylated eIF2α Ser51 antibody-linked acceptor beads (TGR BioScience 6760617) are added to the cell homogenate (diluted 1:250 into a mixture of activation (TGR BioScience TGRAB) and reaction buffer (TGR BioScience TGREIF2S) prepared immediately before use). The plate is then incubated for 2 h at ambient temperature in the dark. Anti-eIF2α antibody-linked donor beads (TGR BioScience 6760617) were then added (diluted 1:100 in dilution buffer (TGR BioScience TGRDB) prepared immediately before use). The plate is then incubated overnight at ambient temperature in the dark.
Plates are analyzed on an Alpha Technology-compatible PHERAstar FS plate reader (BMG Labtech Version 1.14) to quantify phosphorylated eIF2α Ser51 levels. The percentage inhibition of phosphorylated eIF2α is calculated by comparison to control wells stimulated with borrelidin alone.

[2] = compounds of Formula V, 4 nM GCN2 kinase
[3] = compounds of Formula V, U2OS cells, 10 μM borrelidin, 1 h, read-out: GCN2 Biomarker (IC50)
[4] = compounds of Formula II, 4 nM GCN2 kinase
[5] = compounds of Formula II, biomarker assay, phosphorylated eIF2α Ser51 in borrelidin-treated U2OS cells
[6] = Enzyme activity for compounds of Formula IV, Ki(app), 25° C.
[7] = compounds of Formula IV, biomarker assay, phosphorylated eIF2α Ser51 in borrelidin-treated U2OS cells

Sequence of GCN2 kinase (Q9P2K8 whole entry): as above

Ki (GCN2 kinase; [6]) [nM] | IC50 [1, 7] [nM] | SMILES | further results
10 to 100 | 500 to 5000 | C[C@@H]1CN(c2ccnc(-c3cnc4cnc(C(F)(F)F)cn34)n2)C[C@@H](c2cn[nH]c2)O1 (racemic) [IV-11, Trans-2-Methyl-6-(1H-pyrazol-4-yl)-4-(2-(6-(trifluoromethyl)imidazo[1,2-a]pyrazin-3-yl)pyrimidin-4-yl)morpholine] | –
< 10 | < 500 | C[C@@H]1CN(c2ccnc(-c3cnc4cnc(C(F)(F)F)cn34)n2)C[C@H](c2cn[nH]c2)O1 (racemic) [IV-12, Cis-2-Methyl-6-(1H-pyrazol-4-yl)-4-(2-(6-(trifluoromethyl)imidazo[1,2-a]pyrazin-3-yl)pyrimidin-4-yl)morpholine] | –
10 to 100 | 500 to 5000 | C[C@@H]1CC[C@H](C(N)=O)CN1c1ccnc(-c2cnc3cnc(C(F)F)cn23)n1 (racemic) [IV-106, Cis-1-(2-(6-(Difluoromethyl)imidazo[1,2-a]pyrazin-3-yl)pyrimidin-4-yl)-6-methylpiperidine-3 carboxamide] | –
100 to 1000 | > 5000 | C[C@H]1[C@@H](C(=O)O)CCCN1c1ccnc(-c2cnc3cnc(C(F)F)cn23)n1 (racemic) [IV-110, Cis-1-(2-(6-(Difluoromethyl)imidazo[1,2-a]pyrazin-3-yl)pyrimidin-4-yl)-2-methylpiperidine-3-carboxylic acid] | –
10 to 100 | 500 to 5000 | C[C@@H]1CN(c2ccnc(-c3cnc4cnc(Cl)cn34)n2)C[C@H](c2cn[nH]c2)N1 (racemic) [IV-206, Cis-6-Chloro-3-(4-(3-methyl-5-(H-pyrazol-4-yl)piperazin-1-yl)pyrimidin-2-yl)imidazo[1,2-a]pyrazine] | –
10 to 100 | < 500 | C[C@H]1[C@@H](c2cn[nH]c2)OCCN1c1ccnc(-c2cnc3cnc(C(F)(F)F)cn23)n1 (racemic) [IV-215, Cis-3-Methyl-2-(1H-pyrazol-4-yl)-4-(2-(6-(trifluoromethyl)imidazo[1,2-a]pyrazin-3-yl)pyrimidin-4-yl)morpholine] | –
< 10 | < 500 | C[C@@H]1[C@H](c2cn[nH]c2)OCCN1c1ccnc(-c2cnc3cnc(C#N)cn23)n1 (racemic) [IV-280, Cis-3-(4-(3-Methyl-2-(1H-pyrazol-4-yl)morpholino)pyrimidin-2-yl)imidazo[1,2-a]pyrazine-6-carbonitrile] | –
< 10 | < 500 | C[C@H]1[C@@H](c2cn[nH]c2)NCCN1c1ccnc(-c2cnc3cnc(Br)cn23)n1 (racemic) [IV-343, Cis-6-Bromo-3-(4-(2-methyl-3-(1H-pyrazol-4-yl)piperazin-1-yl)pyrimidin-2-yl)imidazo[1,2-a]pyrazine] | –
10 to 100 | 500 to 5000 | C[C@@H]1CN(c2ccnc(-c3cnc4cnc(Br)cn34)n2)C[C@H](c2cn[nH]c2)N1 (racemic) [IV-344, Cis-6-Bromo-3-(4-(3-methyl-5-(1H-pyrazol-4-yl)piperazin-1-yl)pyrimidin-2-yl)imidazo[1,2-a]pyrazine] | –
< 10 | 500 to 5000 | C[C@H]1CN(c2ccnc(-c3cnc4cnc(C(F)(F)F)cn34)n2)C[C@@H](c2c[nH]cn2)N1 (racemic) [IV-379, Cis-3-(4-(3-(1H-Imidazol-4-yl)-5-methylpiperazin-1-yl)pyrimidin-2-yl)-6-(trifluoromethyl)imidazo[1,2-a]pyrazine] | –
100 to 1000 | > 5000 | CS(C)(=O)=N[C@@H]1C[C@@H](c2cn[nH]c2)CN(c2ccnc(-c3cnc4cnc(C(F)(F)F)cn34)n2)C1 (racemic) [IV-394] | –
10 to 100 | 500 to 5000 | C[C@H]1[C@@H](c2cn[nH]c2)NCCN1c1ccnc(-c2cnc3cnc(C4CC4)cn23)n1 (racemic) [IV-411, Cis-6-Cyclopropyl-3-(4-(2-methyl-3-(1H-pyrazol-4-yl)piperazin-1-yl)pyrimidin-2-yl)imidazo[1,2-a]pyrazine] | –
< 10 | < 500 | C[C@H]1[C@@H](c2cn[nH]c2)CCCN1c1ccnc(-c2cnc3cnc(Br)cn23)n1 (relative stereo) [IV-387, Cis-6-Bromo-3-(4-(2-methyl-3-(1H-pyrazol-4-yl)piperidin-1-yl)pyrimidin-2-yl)imidazo[1,2-a]pyrazine] | –
100 to 1000 | 500 to 5000 | CCN1CCN(c2ccnc(-c3cnc4cnc(Br)cn34)n2)[C@@H](c2cn[nH]c2)[C@H]1C (relative stereo) [IV-391, Cis-6-Bromo-3-(4-(4-ethyl-3-methyl-2-(1H-pyrazol-4-yl)piperazin-1-yl)pyrimidin-2-yl)imidazo[1,2-a]pyrazine] | –
< 10 | < 500 | C[C@H]1[C@@H](c2cn[nH]c2)N(C)CCN1c1ccnc(-c2cnc3cnc(Br)cn23)n1 (relative stereo) [IV-392, Cis-6-Bromo-3-(4-(2,4-dimethyl-3-(1H-pyrazol-4-yl)piperazin-1-yl)pyrimidin-2-yl)imidazo[1,2-a]pyrazine] | –

Second part, the compound before the results:

SMILES | Ki (GCN2 kinase; [6]) [nM] | IC50 [1, 7] [nM] | further results
CP(C)(=O)C1CC(c2cn[nH]c2)CN(c2ccnc(-c3cnc4sc(C(F)(F)F)cn34)n2)C1 (racemic) [Compound V-5, 5-[4-[3-Dimethylphosphoryl-5-(1H-pyrazol-4-yl)-1-piperidyl]pyrimidin-2-yl]-2-(trifluoromethyl)imidazo[2,1-b]thiazole] | – | – | Ki (GCN2 kinase; [2]): 10 to 100 nM; IC50 [1, 3]: > 5000 nM
CS(=N)(=O)CC1CCCN(c2ccnc(-c3cnc4sc(C(F)(F)F)cn34)n2)C1 (racemic) [Compound V-18, Imino(methyl)((1-(2-(2-(trifluoromethyl)imidazo[2,1-b]thiazol-5-yl)pyrimidin-4-yl)piperidin-3-yl)methyl)-λ^6-sulfanone] | – | – | Ki (GCN2 kinase; [2]): 100 to 1000 nM; IC50 [1, 3]: > 5000 nM
CS(=N)(=O)CC1CCCN(c2ccnc(-c3cnc4sc(C(F)(F)F)cn34)n2)C1 (racemic) [Compound V-19, Imino(methyl)((1-(2-(2-(trifluoromethyl)imidazo[2,1-b]thiazol-5-yl)pyrimidin-4-yl)piperidin-3-yl)methyl)-λ^6-sulfanone] | – | – | Ki (GCN2 kinase; [2]): 100 to 1000 nM; IC50 [1, 3]: > 5000 nM
CC1(F)CCN(c2cc(-c3cnc4ccc(C(F)F)nn34)ncn2)CC1CNS(C)(=O)=O (racemic) [II-350, N-((1-(6-(6-(Difluoromethyl)imidazo[1,2-b]pyridazin-3-yl)pyrimidin-4-yl)-4-fluoro-4-methylpiperidin-3-yl)methyl)methanesulfonamide] | – | – | Ki (GCN2 kinase; [4]): < 10 nM; IC50 [1, 5]: < 500 nM
CC1CC(C(N)=O)C(C)N(c2cc(-c3cnc4ccc(C(F)(F)F)nn34)ncn2)C1 (racemic) [II-719, 2,5-Dimethyl-1-[6-[6-(trifluoromethyl)imidazo[1,2-b]pyridazin-3-yl]pyrimidin-4-yl]piperidine-3-carboxamide] | – | – | Ki (GCN2 kinase; [4]): 10 to 1000 nM; IC50 [1, 5]: 500 to 5000 nM
CC1CC(C(N)=O)C(C)N(c2cc(-c3cnc4ccc(C(F)(F)F)nn34)ncn2)C1 (racemic) [II-720, 2,5-Dimethyl-1-[6-[6-(trifluoromethyl)imidazo[1,2-b]pyridazin-3-yl]pyrimidin-4-yl]piperidine-3-carboxamide] | – | – | Ki (GCN2 kinase; [4]): 10 to 1000 nM; IC50 [1, 5]: 500 to 5000 nM
CC1CN(c2ccnc(-c3cnc4sc(C(F)(F)F)cn34)n2)C(C)C(c2cn[nH]c2)N1 (single isomer, unassigned) [Compound V-11, 5-[4-[2,5-Dimethyl-3-(1H-pyrazol-4-yl)piperazin-1-yl]pyrimidin-2-yl]-2-(trifluoromethyl)imidazo[2,1-b]thiazole] | – | – | Ki (GCN2 kinase; [2]): < 10 nM; IC50 [1, 3]: < 500 nM
CC1CN(c2ccnc(-c3cnc4sc(C(F)(F)F)cn34)n2)C(C)C(c2cn[nH]c2)N1 (single isomer, unassigned) [Compound V-12, 5-[4-[2,5-Dimethyl-3-(1H-pyrazol-4-yl)piperazin-1-yl]pyrimidin-2-yl]-2-(trifluoromethyl)imidazo[2,1-b]thiazole] | – | – | Ki (GCN2 kinase; [2]): 100 to 1000 nM; IC50 [1, 3]: 500 to 5000 nM
CS(=O)(=O)NCC1CN(c2cc(-c3cnc4ccc(C(F)F)nn34)ncn2)CCC1(F)F (single isomer, unassigned) [II-1, N-((1-(6-(6-(Difluoromethyl)imidazo[1,2-b]pyridazin-3-yl)pyrimidin-4-yl)-4,4-difluoropiperidin-3-yl)methyl)methanesulfonamide] | – | – | Ki (GCN2 kinase; [4]): 10 to 1000 nM; IC50 [1, 5]: 500 to 5000 nM
